Measurements published in ChEMBL document CHEMBL1201862, “PubChem BioAssay data set” (2004).
Where “and” joins values, the source holds several entries; their conditions need not be identical. Equal values may be shown once.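 Exposure lasted 48 hours, with cells grown in 96-well plates and compounds tested at five concentrations. Here, GI50 denotes the concentration required for 50% inhibition of growth.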 Calls of active or inactive are those of the source. Rule as the data show it: active = GI50 up to about 1.1 µM and inactive = higher.

Tests used:
Assay in all cases: NCI anticancer screen, dose series, 48 h
HOP-18 = system: HOP-18
M19-MEL = system: M19-MEL
DMS-114 = system: DMS-114
DLD-1 = system: DLD-1
SNB-78 = system: SNB-78
RXF 631 = system: RXF 631

Measured: GI50

CN(C)CC(CC1=C(CC(CN(C)C)N(C)C)CCC1)N(C)C (configuration not stated)
inactive: HOP-18 > 100 µM | M19-MEL > 100 µM | DMS-114 > 100 µM | DLD-1 > 100 µM

COc1ccc(C2=CC3CCC2C3)cc1 (configuration not stated)
inactive: HOP-18 > 100 µM | SNB-78 > 100 µM | DLD-1 > 100 µM

NC(=O)c1csc(CCCCCCc2nc(C(N)=O)cs2)n1
inactive: HOP-18 > 100 µM | SNB-78 > 100 µM | M19-MEL 18.7 µM | DMS-114 > 71.3 µM | RXF 631 > 100 µM | DLD-1 > 73.6 µM

O=C(O)C1Cc2[nH]c3ccccc3c2C2CCCC12 (configuration not stated)
inactive: SNB-78 > 100 µM | M19-MEL > 100 µM | DMS-114 > 100 µM | DLD-1 > 100 µM

CC(=O)c1ccc2c(c1)c1c(C)c3c[n+](C)ccc3c(C)c1n2C
inactive: HOP-18 17.2 µM | SNB-78 4.53 µM | M19-MEL 4.79 µM | DMS-114 2.14 µM | DLD-1 4.56 µM

C1=CC(=NN=P(c2ccccc2)(c2ccccc2)c2ccccc2)C=C1
inactive: M19-MEL > 100 µM | DMS-114 51.9 µM | DLD-1 > 100 µM

CN(C)/C(=N\C#N)N(Cc1ccccc1)Cc1ccccc1
inactive: HOP-18 > 100 µM | SNB-78 > 100 µM | M19-MEL > 100 µM | DLD-1 43.2 µM

C#C[C@H]1CCCCCC1O (some centres not stated)
inactive: HOP-18 54.6 µM | SNB-78 > 100 µM | M19-MEL > 100 µM | DMS-114 > 100 µM | RXF 631 > 100 µM | DLD-1 > 100 µM

CCCCCCCCCCSCC(CO)NC(=O)/C=C/c1c(C)[nH]c(=O)[nH]c1=O (configuration not stated)
1.33 µM (inactive) and 1.06 µM (active): M19-MEL
active: DMS-114 548 nM and 637 nM
inactive: SNB-78 1.71 µM and 1.9 µM | DLD-1 1.44 µM and 1.38 µM

C/C(=C\c1ccccc1)C(O)C(=O)c1nc2ccc(Cl)cc2nc1O (configuration not stated)
inactive: SNB-78 > 100 µM | M19-MEL > 100 µM | DMS-114 46.3 µM | DLD-1 > 100 µM

CCCn1cc2c(SC)nc(SC)nc2n1
inactive: HOP-18 > 100 µM | SNB-78 > 100 µM | DMS-114 > 100 µM | DLD-1 > 100 µM

N=c1oc2cc(O)c(O)cc2cc1C(N)=O
inactive: SNB-78 > 100 µM | M19-MEL > 100 µM | DMS-114 > 100 µM | RXF 631 > 100 µM | DLD-1 > 100 µM

Oc1cccc2nc3cc(CN4CCOCC4)c(CN4CCOCC4)cc3nc12
inactive: HOP-18 59.7 µM | SNB-78 > 100 µM | M19-MEL 25.9 µM | RXF 631 56.4 µM | DLD-1 61 µM

O=C(c1ccccc1)c1c(CC(O)c2cccnc2)n(C(=O)c2ccccc2)c2ccccc12 (configuration not stated)
inactive: M19-MEL 19.7 µM | DMS-114 27.7 µM

COc1cc2ccc3c4c(OC)cc(OC)c(OC)c4c([O-])[n+](C)c3c2cc1OC
inactive: HOP-18 > 100 µM | SNB-78 10.2 µM | M19-MEL 6.46 µM | DMS-114 2.37 µM | RXF 631 > 100 µM

CN(C)C(=O)/C=C/c1c[nH]c(=O)[nH]c1=O
inactive: HOP-18 > 500 µM | DMS-114 > 500 µM | DLD-1 > 500 µM
